Assay in all cases: NCI tumour cell line growth inhibition, 48 h
For assay [1], the system named is ACHN renal.
Assay [2] relates to OVCAR-3 ovarian.
Assay [3] relates to UO-31 renal.
Assay [4] deals with SK-MEL-5 melanoma.
For assay [5], the system named is MDA-MB-231 breast.
In assay [6] the test system is HL-60(TB) leukemia.
For assay [7], the system named is HOP-62 NSCLC.
Assay [8] has as its system HCC-2998 colon.

The source of these data is PubChem BioAssay (NCI).

Structures are written as SMILES.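 Cultured in 96-well plates, cells were exposed to test compound for 48 hours across five concentrations. Abbreviation: GI50, concentration required for 50% inhibition of growth. The concentration for full growth arrest is given as TGI.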

Turning to `COC(=O)c1ccc(CN2C(=O)C(Cl)=C(Nc3ccc(OC)c(Cl)c3)C2=O)cc1`, the GI50 in assay [1] is 8440 nM; in assay [2], 21600 nM; in assay [3], 31800 nM; in assay [4], 31600 nM; in assay [5], 7140 nM; in assay [6], 32000 nM. For the same molecule, the GI50 in assay [7] is 22700 nM. The TGI is 18.4 µM in assay [1]; more than 50 µM in assay [2]; more than 50 µM in assay [3]; more than 50 µM in assay [4]; 26.3 µM in assay [5]; more than 50000 nM in assay [6]. In assay [7], this molecule registered a TGI of more than 50 µM.
With `O=C(N/N=C/c1ccc(Cl)cc1)c1[nH]c2ccc(Cl)cc2c1-c1ccccc1`, the GI50 in assay [1] is 199 nM; in assay [2], 26.5 nM; in assay [3], 268 nM; in assay [4], 214 nM; in assay [5], 201 nM; in assay [6], 107 nM. Also, the GI50 in assay [8] was 326 nM; in assay [7], 494 nM. The TGI in assay [1] was more than 45.3 µM; in assay [2], 0.0584 µM; in assay [3] it was more than 65 µM; in assay [4], 0.469 µM; in assay [5] it was 0.633 µM; in assay [6], 393 nM. Further, the TGI in assay [8] turned out to be 15.5 µM; in assay [7], 36.4 µM.
Regarding `CCCCCCCCCCCCCCCCCCNC(=O)OCC(CNS(=O)(=O)CCC[n+]1cccc2ccccc21)COC` (centres undefined), the TGI in assay [1] is 29.9 µM; in assay [2] it was 48.5 µM; in assay [3], more than 75.1 µM; in assay [4], 7.03 µM; in assay [5], 4.05 µM; in assay [6], more than 100000 nM. Moreover, the TGI in assay [7] came to 38.9 µM.
As to `CNCCNc1nc2ccccc2c2c(=O)c3cc(F)ccc3sc12`, the GI50 was 1560 nM in assay [1]; 1700 nM in assay [2]; 1390 nM in assay [3]; 1820 nM in assay [4]; 1610 nM in assay [5]; 1890 nM in assay [6]. The values for the GI50 in assay [8] and in assay [7] were 1700 nM and 1480 nM, respectively. For the same molecule, the TGI amounted to 2.91 µM in assay [1]; 3.25 µM in assay [2]; 2.81 µM in assay [3]; 3.34 µM in assay [4]; 3.18 µM in assay [5]; 3660 nM in assay [6]. For the same molecule, the TGI in assay [8] is 3.45 µM; in assay [7] it was 3.21 µM.
With `CC[C@]1(O)C[C@@H]2CN(CCc3c([nH]c4ccccc34)[C@@](C(=O)OC)(c3cc4c(cc3OC)N(C)[C@H]3[C@@](O)(C(N)=O)[C@H](O)[C@]5(CC)[C@@H]6C[C@@H]6CN6CC[C@]43[C@@H]65)C2)C1`, the GI50 was 161 nM in assay [1]; less than 3.33 nM in assay [2]; 548 nM in assay [3]; less than 3.33 nM in assay [4]; 5.48 nM in assay [5]; less than 3.33 nM in assay [6]. The GI50 was 4.13 nM in assay [8] and 6.94 nM in assay [7]. In addition, the TGI is more than 33.3 µM in assay [1]; 0.0818 µM in assay [2]; more than 33.3 µM in assay [3]; 0.0546 µM in assay [4]; more than 16.2 µM in assay [5]; 13 nM in assay [6]. Moreover, the values for the TGI in assay [8] and in assay [7] were more than 29 µM and more than 33.3 µM, respectively.
Take `C/C=C(/C)c1cnc(CC(C)C)c(=O)[nH]1`: the TGI in assay [1], in assay [2], in assay [3], in assay [4], in assay [5] and in assay [8] was more than 100 µM in each case. For the same molecule, the TGI in assay [7] was more than 100 µM.
As for `CC1(C)C(=O)C=CC2(C)C1CC(O)C1(C)C2CCC2(C)C(c3ccoc3)OC(=O)C3OC321` (centres undefined), the TGI in assay [1] is 30.3 µM; in assay [2], 36 µM; in assay [3], 25.8 µM; in assay [4], 21.8 µM; in assay [5], 36.7 µM; in assay [8], 26.2 µM. This molecule showed a TGI in assay [7] of 85.7 µM.
On to `CN(C)CCCc1c2ccccc2nc2ccc(Cl)cc12`, for which the TGI in assay [1] came out at 33.6 µM; in assay [2] it was 57.7 µM; in assay [4], 28.2 µM; in assay [5] it was 31.9 µM; in assay [6], 40300 nM; in assay [7], 30 µM.
On to `CCN(CC)CCOc1c(OC)c(Br)cc2c(C)c(C(=O)OC)oc12`, for which the GI50 in assay [1] was 899 nM; in assay [2] it was 982 nM; in assay [3], 3190 nM; in assay [4], 818 nM; in assay [5], 1220 nM; in assay [8] it was 2420 nM. The TGI in assay [1] is 2.08 µM; in assay [2], 2.28 µM; in assay [3] it was 50 µM; in assay [4] it was 1.53 µM; in assay [5] it was 3.46 µM; in assay [8], 7.41 µM.
For the molecule `COC(=O)c1cc(-c2ccc(OC)cc2)[nH]c1N/N=C/c1c(Cl)cccc1Cl`, the GI50 in assay [1] was 316 nM; in assay [3] it was 287 nM; in assay [4], 198 nM; in assay [5], 462 nM; in assay [6] it was 235 nM; in assay [8], 118 nM. In assay [7], the GI50 is 275 nM. In addition, the TGI was 4.42 µM in assay [1]; 2.55 µM in assay [3]; 3.5 µM in assay [4]; 3.24 µM in assay [5]; 574 nM in assay [6]; 0.536 µM in assay [8]. For the same molecule, in assay [7], the TGI was found to be 4.71 µM.
On to `CCOC(=O)c1c2c(n(Cc3ccccc3)c1C)-c1nc(Cc3ccccc3)[nH]c1C(=O)C2=O`, for which the GI50 in assay [1] was 1640 nM; in assay [2], 1130 nM; in assay [3] it was 1320 nM; in assay [4], 1690 nM; in assay [5], 1370 nM; in assay [8], 2600 nM. Also, the GI50 in assay [7] was 1750 nM. The TGI in assay [1] is 3 µM; in assay [2], 2.47 µM; in assay [3] it was 2.64 µM; in assay [4], 3.06 µM; in assay [5], 2.67 µM; in assay [8], 4.09 µM. For the same molecule, the TGI in assay [7] is 3.45 µM.
